These results are taken from patent publication US20100254928A1, “NOVEL COMPOSITION CONTAINING OZONIZED SURFACTANT” (priority 2007, published 2010).

The subject of one data set is insects such as ants. Kind of data set: Repellent activity (Test Example 14). In kind it is in vivo, pill bug. Particulars: 2 mL of 1% aqueous solution on tissue paper with 1 g honey, 8 hours. On the procedure: The repellent performance of the ozonized surfactant of the present invention was checked. […] In addition, 1 g of honey was instilled into the center. […] These specimens were placed on leaf mold in a flower bed, and the conditions were observed 8 hours later.

Data set [1] can be described thus: Temporal change in oxidizing property (iodine titration method). In kind it is physicochemical. The conditions noted are these: 25° C. The text has this: After deaerating the obtained aqueous ozonized surfactant solution to remove dissolved ozone gas by helium purging, the oxidizing property of the aqueous ozonized surfactant solution can be determined by the iodine titration method (see Non Patent Literature 1). Whether or not the aqueous ozonized surfactant solution maintains a function as a surfactant can be evaluated by checking whether or not frothing, which is a characteristic of surfactants, occurs when the solution is agitated or vibrated.
Meanwhile, oxygen was supplied from an oxygen cylinder into an ozonizer (ozonizer GR-RB made by Sumitomo Precision Products Co., Ltd.) at an oxygen flow rate of 0.3 L/min to ozonize the oxygen to produce ozone gas. Then, the ozone gas was dissolved in the above-described aqueous solution in a dissolving module (SEK model made by ERC Technology), and the aqueous solution was circulated at a flow rate of 1 L/min. […] Further, in 30 minutes, the concentration increased to 25 ppm (see FIG. 2). After deaerating the aqueous solution that had undergone about 30-minute ozone treatment to remove dissolved ozone gas by helium purging, oxidizing property of the aqueous solution was determined by the iodine titration method. As a result, the aqueous solution had oxidizing property, and frothing, which is a characteristic of surfactants, was observed. The results confirmed that ozonized Tween 80 had been produced. Further, a temporal change in the oxidizing property of the aqueous solution was determined by the iodine titration method at 25° C. for 20 days. As a result, the percentage of oxidizing property measured after 20 days to that measured just after preparation was 109%.
The solution A was diluted to a 1% aqueous solution, and a temporal change in the oxidizing property of the aqueous solution was determined by the iodine titration method at 25° C. for 700 days. As a result, the percentage of oxidizing property measured after 700 days to that measured just after preparation was 101%.

Another data set relates to slug. The data set can be described thus: Insecticidal activity: test of killing slugs. In kind it is in vivo. The conditions noted are these: 1% aqueous solution, 2 pushes: 1.88 mL sprayed from 15 cm above. The protocol: In order to check the insect control performance of the ozonized surfactant, a test of killing slugs was performed. A slug was put into a glass petri dish. Onto the slug, a 1% aqueous solution of the ozonized surfactant obtained in Example 4, 5, 7, 9 or 10 (2 pushes: 1.88 mL) was sprayed from 15 cm above. After that, the time elapsed until the slug died (the motion stopped) was measured. As a control, the same evaluation was simultaneously performed with a commercial insecticide (product name: NEW Namekuji (slug) Spray, made by Sumitomo Chemical Garden Products Inc., Lot No. 11.05 0806JE) containing a natural substituted phenol, a copper compound and an alcohol, as active ingredients.

For data set [2], the system named is mold (filamentous fungus). The data set can be described thus: Evaluation of antiseptic activity in thickener solution. In kind it is cell-based. The conditions noted are these: 0.1% in 3.5% Carbopol ETD2020 aqueous solution, 25° C. On the procedure:
In order to check the antiseptic performance of ozonized surfactants, the ozonized surfactants were added to a substance susceptible to mold. […] Into a 100 mL-glass bottle, 50 mL of the sample was charged. The bottles were kept at 25° C. in a thermostatic air chamber, and temporal changes were visually observed. […] The mold-like material was removed and examined under a 700-power microscope. As a result, spores were detected and the material was identified as a filamentous fungus. The above results confirmed the antiseptic activity of the ozonized surfactants.

Data set [3] relates to Sphrageidus similis larva. The data set can be described thus: Insecticidal activity: test of killing other insects. It is filed as in vivo. The conditions noted are these: 2% aqueous solution, 1.88 mL sprayed. On the procedure:
(§1) In order to check the insect control performance of the ozonized surfactant, a test of killing other insects was performed. An Orgyia thyellina larva, a Sphrageidus similis larva, and an Arge pagana larva were put into separate glass petri dishes. Onto each insect pest, a 2% aqueous solution of the solution obtained in Example 5 (2 pushes: 1.88 mL) was sprayed from 15 cm above. After that, the time elapsed until each insect died (the motion stopped) was measured.

Another data set has as its system Arge pagana larva. The data set is described as above. In kind it is in vivo. The conditions noted are these: 2% aqueous solution, 1.88 mL sprayed. The protocol:
as §1

Another data set has as its system Orgyia thyellina larva. The data set is described as above. It is filed as in vivo. The conditions noted are these: 2% aqueous solution, 1.88 mL sprayed. The protocol:
as §1

A short description of data set [4]: Surface-active property test (contact angle). In kind it is physicochemical. On the procedure:
The surface-active properties of ozonized surfactants were determined in the following manner. Aqueous solutions each containing 1% Tween 80, POE (10 EO) oleyl ether or POE (20 EO) oleyl ether (all of which were made by Wako Pure Chemical Industries, Ltd.) were prepared. Each solution was dropped on a polyvinyl chloride plate and measured for a contact angle (θ) with the use of a contact angle meter CA-VP (made by Kyowa Interface Science Co., Ltd.). The same measurement was carried out for a 1% aqueous solution of the ozonized surfactant obtained in Example 1, 4, or 8.

In the case of `CCCCCCCC/C=C\CCCCCCCC[N+](C)(C)CCCCCCCC/C=C\CCCCCCCC.[Cl-]` [Unozonized surfactant of Ex. 10, dimethyldioleylammonium chloride, reference compound], the “ants gathered on the specimen” value with insects such as ants is 15 ants.
For the compound “Ozonized POE (20 EO) oleyl ether [Example 8]”, the “percentage of oxidizing property measured after 300 days to that measured just after preparation” value in data set [1] (1% aqueous solution, 300 days) was found to be 100%.
Consider “Ozonized POE sorbitan monooleate (20 EO) [Example 7]”, for which the “Death time of slug” value with slug was 244 s. Besides, the “percentage of oxidizing property measured after 700 days to that measured just after preparation” value in data set [1] (1% aqueous solution, 700 days) was 100%.
On to “Ozonized decaglycerin monooleate [Example 6]”, for which the “insects gathered on the specimen” value with insects such as ants is reported as “did not gather at all”. Moreover, in data set [2], the “Antiseptic activity of thickener soln. (visually observed), 1 month after” value is given as “Good” and the “Antiseptic activity of thickener soln. (visually observed), 1 week after” value was “Good”.
Turning to “Ozonized polyethylene glycol monooleate [Example 5]”, the “Death time of slug” value in the data set on slug came to 729 s. The “Antiseptic activity of thickener soln. (visually observed), 1 month after” value in data set [2] is “Good”. In data set [2], the “Antiseptic activity of thickener soln. (visually observed), 1 week after” value is given as “Good”. For the same compound, the “percentage of oxidizing property measured after 180 days to that measured just after preparation” value in data set [1] (1% aqueous solution, 180 days) was determined as 100%. The Death time in data set [3] came out at 130 s; in the data set with Arge pagana larva, 115 s; with Orgyia thyellina larva, 100 s.
On to POE (20 EO) oleyl ether, for which, in data set [4] (1% aqueous solution of the ozonized surfactant obtained in Example 1, 4, or 8, on polyvinyl chloride plate), the “Contact angle, After ozonization” value is given as 26.7 degree (°). Also, the “Contact angle, Before ozonization” value in data set [4] (1% aqueous solution on polyvinyl chloride plate, ion exchange water 87.3°) is reported as 59.4 degree (°).
As to “decaglycerin monooleate [Decaglycerol monooleate, reference compound]”, the “ants gathered on the specimen” value in the data set on insects such as ants worked out at 10 ants.
Turning to ozonized Tween 80 [Example 1], the “percentage of oxidizing property measured after 20 days to that measured just after preparation” value in data set [1] (0.1% aqueous solution, 20 days) came to 109%.
